The source of these data is patent publication US20130302344A1, “METHODS AND MEDICAMENTS FOR THE TREATMENT OF GOUT OR PSEUDOGOUT” (TOPOTARGET SWITZERLAND SA, priority 2006, published 2013).

The subject of series [1] is mouse peritoneal exudate cells. Description: IL-1β production by mouse peritoneal macrophages (ELISA). The format is cell-based. The protocol: (§1) BALB/C mice were intraperitoneally injected with a 4% solution of thioglycollate. Six days later, peritoneal exudate cells (PEC) were collected by washing the peritoneal cavity with phosphate buffer saline. Cells were distributed in wells of tissue culture 12 well plates (10^6 cells/well). Non-adherent cells were washed and adherent cells were treated. with 1 μg/ml of Ultrapure LPS (Invivogen) in the presence or the absence of 200 nM of 17-AAG (Invivogen). (a) After overnight culture, the supernatants were collected and used for determination of TNF by ELISA. (b, c) Fresh medium was added on the cells in the presence or the absence of 2 mM of ATP or 100 μg/ml MSU. After 5 hours, the supernatants were collected and IL-1β was determined by ELISA. (d) Mouse peritoneal macrophages were treated with 500 ng/ml of Ultrapure LPS (Invivogen) in the presence or the absence of 50 nM of 17-DMAG (Invivogen). 2 hours later, cells were stimulated with 500 μg/ml MSU. After 4 hours, the supernatants were collected and IL-1β was determined by ELISA. (e) Human blood monocytes were treated with 1 μg/ml of Ultrapure LPS (Invivogen) in the presence or the absence of graded doses of 17-DMAG (Invivogen). After overnight culture, cells were stimulated with 100 μg/ml MSU. After 6 hours, the supernatants were collected and IL-1β was determined by ELISA.
Eight to twelve week-old mice of indicated genotypes were injected i.p. with 4% thioglycollate solution, and macrophages were collected by peritoneal lavage 3-6 days later. Cells were plated at the density of 7×10^5 cells in twelve-well dishes and. non-adherent cells were removed after 3 h. Cells were cultured in RPMI complemented with 10% FCS, sodium pyruvate, penicillin/streptomycin and L-glutamin. All cells were stimulated in OptiMEM medium as described above. Caspase-1 was analyzed using an antibody from Santa Cruz Biotechnology (se-514) and ASC using an antibody as described previously^34. The antibody against mouse IL-1β[…]was a gift from Roberto Solari, Glaxo. […]

For series [2], the system named is mouse peritoneal exudate cells. Description: TNF production by LPS-treated mouse peritoneal exudate cells (ELISA). The format is cell-based. The note with it: 200 nM, 1 μg/ml LPS overnight; FIG. 8a. Here is the method: as §1, with “2 hours later, cells were stimulated with 500 μg/ml MSU.” left out, “(e) Human blood monocytes were treated with 1 μg/ml of Ultrapure LPS (Invivogen) in the presence or the absence of graded doses of 17-DMAG (Invivogen). After overnight culture, cells were stimulated with 100 μg/ml MSU.” left out
Eight to twelve week-old mice of indicated genotypes were injected i.p. with 4% thioglycollate solution, and macrophages were collected by peritoneal lavage 3-6 days later. […] Caspase-1 was analyzed using an antibody from Santa Cruz Biotechnology (se-514) and ASC using an antibody as described previously^34. […]

Series [3] deals with MSU-induced neutrophil recruitment. Description: MSU crystal-induced aseptic peritonitis, neutrophil recruitment (FACS). The series is classed as in vivo, mouse. Here is the method:
Aseptic peritonitis was induced in female C57BL/6 mice by injection of 500 μg monosodium urate crystals (MSU) with PBS, 200 μg anakinra (Kineret, Amgen Inc., Thousand Oaks, USA), 200 μg anti-IL-1RI monoclonal antibody (BD Pharmingen, San Jose, USA), 200 μg anti-IL-1α monoclonal antibody (Biolegend, San Diego, USA), 200 μg anti-IL-1β monoclonal antibody ((Biolegend, San Diego, USA), or combination of 200 μg anti-IL-1α monoclonal antibody and 200 μg anti-IL-1β monoclonal antibody. After 6 h, mice were killed and the peritoneal cavity was washed with 10 ml of cold PBS. The lavage fluids were analyzed for neutrophil recruitment by FACS using the neutrophil markers CD11b and Gr1 (Ly-6G). Values are±s.e.m. of total neutrophil counts with 4-5 animals per group, Unpaired Students t test was used to calculate P value. […] The lavage fluids were analyzed for neutrophil recruitment by FACS using the neutrophil markers CD11b and Gr1 (Ly-6G), Values are±s.e.m. of total neutrophil counts with 4-5 animals per group. […] The lavage fluids were analyzed for neutrophil recruitment by FACS using the neutrophil markers CD11b and Gr1 (Ly-6G). […] The lavage fluids were analysed for PMN recruitment by FACS using the neutrophil marker Ly-6G and CD11b (BD Pharmingen).

The subject of the next series is human blood monocytes. The series can be described thus: IL-1β production by MSU-stimulated human blood monocytes (ELISA). The following applies: graded doses, LPS overnight, 100 μg/ml MSU 6 h; FIG. 8e. The format is cell-based. Here is the method: as §1
(In general: In an ELISA, binding on a coated surface is turned into a signal by an enzyme label.)

Another series has as its system gout. The series can be described thus: Case reports of patients with proven gout. The series is classed as in vivo, human. The note with it: for adverse effects of earlier gout treatments: patient history in cases 1-4, doses as stated per case; for response of gouty arthritis to earlier treatment: cases 3 and 4, prednisone 30 mg daily tapering over 7 days, colchicine 1 mg daily; for response of acute gouty arthritis / recurrence on follow-up: gout patients; for response of acute gouty arthritis: anakinra 100 mg daily for 2-3 days (cases 1-3); for recurrence on follow-up: one to two months after anakinra. Here is the method:
Four patients with proven gout were treated with anakinra (Kineret).

For series [4] the following is noted: oral; cited from earlier work.
Another series has as its system MSU-induced inflammation. The note with it: intravenous pretreatment; cited from earlier work.
Series [5] has as its system THP1 cells. Description: IL-1β maturation in PMA-primed THP1 cells stimulated with crystals or ATP (Western blot). The series is classed as cell-based, human. The protocol:
a-c, THP1 cells were stimulated for 6 h with the indicated amounts/ml of MSU crystals (a), CPPD (b) or with 50 μg/ml of pure LPS, MSU, allopurinol crystals, CPPD crystals, diamond crystals, aluminum particles, zymosan, crude preparations of LPS, or 5 mM of extracellular ATP as indicated (c). Supernatants (SN) were analyzed for the presence of mature IL-1β, IL-18 or caspase-1, and cell extracts (Cell) for the presence of proIL-1β and proIL-18. d, human monocytes were stimulated with 50 μg/ml of the indicated crystals for 6 h and analyzed by Western blot for IL-1β activation or by ELISA for released. caspase-1 and IL-1β.
THP1 cells were pre-treated with the P2X antagonist pyridoxal-phosphate-6-azophenyl-2′,4′-disulfonic acid (PPADS, Alexis) for 30 min and subsequently stimulated for 6 h with MSU crystals (50 μg/ml). Supernatants (SN) were analyzed for the presence of mature IL-1β and cell extracts (Cell) for the presence of proIL-1β.
THP1 cells were stimulated with MSU, CPPD or ATP in the presence or absence of colchicine (colch). Maturation of IL-1β was analyzed by Western Blot.
(§2) THP1 were stimulated for 3 h with 0.5 μM of PMA the day before stimulation as described^10. This treatment increases the phagocytic properties of the cells and induces a constitutive production of proIL-1β^33. Human monocytes were purified as described before^30. All cells were stimulated in OptiMEM medium as indicated. Human mature IL-1β was detected with a specific antibody directed. against the cleaved epitope (D116) from Cell Signalling, or with an Enzyme-linked immunoabsorbent assay (ELISA) from BD bioscience. TNF and IL-6 were detected by an ELISA from ImmunoTools and caspase-1 by an ELISA from Alexis. IL-18 was detected. with an antibody from MBL (D044-3) and. Caspase-1 with an antibody from Santa Cruz Biotechnology (sc-622), The antibody against human IL-1β[…] was a gift from Roberto Solari, Glaxo. z-YVAD-fmk was purchased from Alexis Biochemicals. IL-1ra (anakinra, Kineret) was from Amgen (thousand Oaks, USA).
For orientation: A western blot detects proteins with antibodies after separation by electrophoresis.

Series [6] concerns THP1 cells. Description: TNF-α production by stimulated THP1 cells (ELISA). The format is cell-based, human. The following applies: FIG. 5a. The protocol: (§3) a, THP1 cells were stimulated with MSU, CPPD or Zymosan (Zym) for the indicated, times in the presence or absence of the caspase-1 inhibitor zYVAD-fink. Supernatants were analyzed for TNF-α (gray bars) and IL-1β (black bars) production by ELISA. b, human monocytes were incubated with MSU or CPPD in the presence of two concentrations of IL-1Ra. TNF-α and IL-6 production was monitored by ELISA.
as §2

The test system of another series is human monocytes. Description: TNF-α and IL-6 production by human monocytes incubated with MSU or CPPD (ELISA). The series is classed as cell-based. The following applies: two concentrations of IL-1Ra, FIG. 5b. The protocol:
as §3, §2

Entries after “also recorded” stand apart in the source; their conditions may differ.

`C=CCNC1=C2C[C@@H](C)C[C@H](OC)[C@H](O)[C@@H](C)/C=C(\C)[C@H](OC(N)=O)[C@@H](OC)/C=C\C=C(/C)C(=O)NC(=CC1=O)C2=O` [17-AAG, 17-(Allylamino)-17-demethoxygeldanamycin]: the “production of IL-1β by mouse macrophages stimulated by MSU crystals” value in series [1] (200 nM, LPS overnight, 100 μg/ml MSU 5 h, FIG. 8c) was “almost completely inhibited”. Also, the “production of IL-1β by mouse macrophages stimulated by ATP” value in series [1] (200 nM, LPS overnight, 2 mM ATP 5 h, FIG. 8b) is reported as “almost completely inhibited”. Also, the “reduction of TNFα production” value in [2] is “less than 50%”.
Take `CO[C@H]1/C=C\C=C(/C)C(=O)NC2=CC(=O)C(NCCN(C)C)=C(C[C@@H](C)C[C@H](OC)[C@H](O)[C@@H](C)/C=C(\C)[C@@H]1OC(N)=O)C2=O` [17-DMAG, 17-(Dimethylaminoethylamino)-17-demethoxygeldanamycin]: the “neutrophil influx in response to MSU” value in series [3] (female BALB/C mice, 25 mg/kg intraperitoneally 1 h before 500 μg MSU, FIG. 14) is reported as “reduced”. For the same compound, the “production of IL-1β by mouse macrophages stimulated by MSU crystals” value in series [1] (50 nM, LPS 2 h, 500 μg/ml MSU 4 h, FIG. 8d) is reported as “inhibited”. In the series on human blood monocytes, the “production of IL-1β by human blood monocytes stimulated by MSU crystals” value was “inhibited”.
Turning to `Oc1ncnc2[nH]ncc12` [allopurinol], the “adverse effects of earlier gout treatments” value (shortened to “adverse effects”) in the series with gout is recorded as “severe cutaneous reaction; also recorded: acute gout developed after the first dose; also recorded: induced flare-ups of arthritis”.
In the case of `CCc1oc2ccccc2c1C(=O)c1cc(Br)c(O)c(Br)c1` [benzbromazone], the “adverse effects” value in the series on gout is given as “renal stones”.
Consider `COc1cc2c(c(OC)c1OC)-c1ccc(OC)c(=O)cc1[C@@H](NC(C)=O)CC2` [colchicine], for which the “side effects limiting use” value in series [4] is “nausea and abdominal pain”. In addition, the “response of gouty arthritis to earlier treatment” value with gout is “ineffective”. Also, the “adverse effects” value is “rectal bleeding; also recorded: diarrhea” in the series with gout and “intolerable diarrhea; also recorded: rapid onset of diarrhea” in the series with gout (listed as Colchicine). For the same compound, the “inflammation after intraarticular MSU injections” value with MSU-induced inflammation was “greatly reduces inflammation”. In addition, the “IL-1β activation by extracellular ATP” value with THP1 cells [5] (FIG. 6) is “did not affect”. Moreover, the “crystal-induced processing of IL-1β” value with THP1 cells [5] (MSU or CPPD, pretreatment, FIG. 6) is listed as “completely blocked”.
Regarding `O=C(O)Cc1ccccc1Nc1c(Cl)cccc1Cl` [diclofenac], the “adverse effects” value in the series with gout is “gastrointestinal side effects including one episode of G-I hemorrhage”.
On to `C[C@]12C=CC(=O)C=C1CC[C@@H]1[C@@H]2C(=O)C[C@@]2(C)[C@H]1CC[C@]2(O)C(=O)CO` [prednisone], for which the “response of gouty arthritis to earlier treatment” value in the series on gout was “the arthritis remained active”.
Take `COC(=O)C[C@H](NC(=O)[C@H](C)NC(=O)[C@@H](NC(=O)[C@H](Cc1ccc(O)cc1)NC(=O)OCc1ccccc1)C(C)C)C(=O)CF` [zYVAD-fmk]: in the series on THP1 cells [6], the “TNF-α production by the TLR2 agonist Zymosan” value was “without affecting”; the “reduction of TNF-α production induced by MSU and CPPD” value is given as “more than 50%”. For the same compound, the “MSU-induced IL-1β activation” value in the series with THP1 cells [5] (MSU crystals, 6 h, FIG. 1a) was “completely blocked”.
With “anakinra: IL-1 receptor type I (IL-1RI) antagonist, IL-1Ra also known as anakinra, marketed under the name Kineret”, in the series on gout, the “response of acute gouty arthritis” value is listed as “complete resolution of arthritis by the second day; also recorded: responded rapidly” and the recurrence on follow-up result was “no recurrence of arthritis; also recorded: asymptomatic two months later”. Besides, in the series with gout (listed as Anakinra), the “response of acute gouty arthritis” value is “rapid reduction in joint pain over 48 h” and the recurrence on follow-up result was “No acute flares”. In the series on gout (listed as Anankinra), the “response of acute gouty arthritis” value is “rapid resolution of signs and symptoms of arthritis”; the recurrence on follow-up result is recorded as “no further flare-ups”. Further, the neutrophil influx result in series [3] (female C57BL/6 mice, 500 μg MSU, 200 μg of each agent, 6 h, FIG. 12) is listed as “almost entirely prevented”. In the series with human monocytes, the “IL-6 production by human monocytes” value is “significantly affected” and the “TNF-α production by human monocytes” value is recorded as “significantly affected”.
